We go through one molecule from patent publication US20220000952A1, “METHOD PREPARING ANTRODIA CINNAMOMEA EXTRACT AND ANTRODIA CINNAMOMEA COMPOSITION, AND PHARMACEUTICAL COMPOSITION” (priority 2018, published 2022).

The test system of the data set is bone marrow inhibition of chemotherapeutic drug Cisplatin. As to the kind of experiment: Efficacy test for improving the bone marrow inhibition of chemotherapeutic drug cisplatin in C57BL/6 immune normal mice. The conditions noted are these: cisplatin alone 20 mg/kg i.p. day 1. Type of data set: in vivo. As to the method: The animals used in this study were C57B116 mice which were commercially available from Taiwan Experimental Animal Centers and six weeks old. The feeding temperature was controlled to be 25±2° C., the illumination time was 08: 00-20: 00, sufficient feed and drinking water were provided daily, and the padding was replaced twice a week.
The cisplatin (cis, 20 mg/kg) was administered by intraperitoneal injection on the first day. The Antrodia cinnamomea composition (400 mg/kg) was administered in a tube-teed manner on the 1st to 5th day, and the time of tube feeding on the first day was 4 hours after the chemotherapeutic drug was administered. The animal groups were the control group,Cis and Antrodia cinnamomea compositions (AC) respectively, with 6 mice in each group and 18 mice in 3 groups.
The experimental animals were sacrificed in a CO2 manner on the sixth day, the thigh bones of the mice were surgically removed, both ends of the bones were cut, bone marrow cells were flushed out, and after centrifugation and washing, the cells were added to MethoCult M3334 medium or MethoCult M3234 medium, and allowed to stand in a humidified incubator containing 5% CO2 at 37° C. and cultured, the former was cultured for 48 hours to observe by microscope and calculate the number of CFU-E (Colony-forming unit-erythroid) colonies, and the latter was cultured for 7 days to observe by microscope and calculate the number of CFU-GM(Colony-forming unit-granulocyte, macrophage) colonies. The colony numbers of CFU-E and CFU-GM were counted by observation in the whole field of view.
Before the experimental animals were sacrificed, the whole blood was collected in a cheek blood collection manner, and anticoagulant whole blood was used for complete blood count (CBC) to determine the number of peripheral white blood cells.
One-way analysis of variance (One-Way ANOVA) was used for data analysis. When the analysis result reached a significant level, Fisher LSD was used for subsequent comparison.

The structures appear in SMILES notation.

As to `N.N.[Cl][Pt][Cl]` [cisplatin], the “number of white blood cells (peripheral blood)” value (FIG. 5) is listed as “can reduce the number of white blood cells”. Also, the “number of CFU-GM (myeloid leukocyte precursor cells)” value (FIG. 6) is “inhibits the number of myeloid leukocyte precursor cells CFU-GM”. For the same molecule, the “number of CFU-E (bone marrow red blood cell precursor cells)” value (FIG. 7) is given as “can inhibit the number of bone marrow red blood cell precursor cells CFU-E”.
